Reference: patent publication US9029391B2 (priority 2011, dated 2015)
pIC50: −log10 of the molar value.

system: HIV; test: MT4 Assay (anti-HIV activity); format: cell-based; conditions: Human immunodeficiency virus 1, 96 h, read-out: HIV MT4 Assay IC50, HTLV-1 transformed cell line MT-4, cell titer glo, 10 point dose response curve
Procedure, shortened: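 MT-4 cells (HTLV-1 transformed) were used for antiviral activity and cytotoxicity, run in parallel, with luminescence read by CellTiter-Glo 96 hours later. Percent inhibition was expressed against the no-compound control. IC50s came from 10-point curves of 3-4-fold serial dilutions spanning >1000-fold.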

| SMILES | pIC50 |
| --- | --- |
| CCNC(=O)NCc1ccc2c(-c3ccc(C)c(C)c3)c(C(OC(C)(C)C)C(=O)O)n(C)c(=O)c2c1 (stereo not drawn) [Example 185, 2-(tert-butoxy)-2-(4-(3,4-dimethylphenyl)-7-((3-ethylureido)methyl)-2-methyl-1-oxo-1,2-dihydroisoquinolin-3-yl)acetic acid] | 4.43 |
| Cc1ccc(-c2c(C(OC(C)(C)C)C(=O)O)n(C)c(=O)c3cc(CNC(=O)C(=O)O)ccc23)cc1C (stereo not drawn) [Example 186, 2-(tert-butoxy)-2-(7-((carboxyformamido)methyl)-4-(3,4-dimethylphenyl)-2-methyl-1-oxo-1,2-dihydroisoquinolin-3-yl)acetic acid] | 4.30 |
| Cc1ccc(-c2c(C(OC(C)(C)C)C(=O)O)n(C)c(=O)c3cc(CNS(C)(=O)=O)ccc23)cc1C (stereo not drawn) [Example 187, 2-(tert-butoxy)-2-(4-(3,4-dimethylphenyl)-2-methyl-7-(methylsulfonamidomethyl)-1-oxo-1,2-dihydroisoquinolin-3-yl)acetic acid] | 4.64 |
| Cc1ccc(-c2c(C(OC(C)(C)C)C(=O)O)n(C)c(=O)c3cc(CNS(=O)(=O)N(C)C)ccc23)cc1C (stereo not drawn) [Example 188, 2-(tert-butoxy)-2-(4-(3,4-dimethylphenyl)-7-(((N,N-dimethylsulfamoyl)amino)methyl)-2-methyl-1-oxo-1,2-dihydroisoquinolin-3-yl)acetic acid] | 5.43 |
| Cc1ccc(-c2c(C(OC(C)(C)C)C(=O)O)n(C)c(=O)c3cc(-c4cccn4C)ccc23)cc1C (stereo not drawn) [Example 191, [(1,1′-dimethylethyl)oxy][4-(3,4-dimethylphenyl)-2-methyl-7-(1-methyl-1H-pyrrol-2-yl)-1-oxo-1,2-dihydro-3-isoquinolinyl]acetic acid] | 6.46 |
| Cc1ccc(-c2c(C(OC(C)(C)C)C(=O)O)n(C)c(=O)c3cc(-c4cnn(C)c4)ccc23)cc1C (stereo not drawn) [Example 192, [(1,1-dimethylethyl)oxy][4-(3,4-dimethylphenyl)-2-methyl-7-(1-methyl-1H-pyrazol-4-yl)-1-oxo-1,2-dihydro-3-isoquinolinyl]acetic acid] | 6.46 |
| Cc1ccc(-c2c(C(OC(C)(C)C)C(=O)O)n(C)c(=O)c3cc(-c4ccoc4C)ccc23)cc1C (stereo not drawn) [Example 193, [(1,1-dimethylethyl)oxy][4-(3,4-dimethylphenyl)-2-methyl-7-(2-methyl-3-furanyl)-1-oxo-1,2-dihydro-3-isoquinolinyl]acetic acid] | 5.87 |
| Cc1ccc(N(C)c2c(C(OC(C)(C)C)C(=O)O)n(C)c(=O)c3ccccc23)cc1C (stereo not drawn) [Example 212, 2-(tert-Butoxy)-2-(4-((3,4-dimethylphenyl)(methyl)amino)-2-methyl-1-oxo-1,2-dihydroisoquinolin-3-yl)acetic acid] | 4.30 |
| CCCC(C(=O)O)c1c(-c2ccc(C)cc2C)c2ccccc2c(=O)n1C (stereo not drawn) [Example 216, 2-[4-(2,4-dimethylphenyl)-2-methyl-1-oxo-1,2-dihydro-3-isoquinolinyl]pentanoic acid] | 4.44 |
| Cc1ccc(-c2c(C(CC(C)C)C(=O)O)n(C)c(=O)c3ccccc23)c(C)c1 (stereo not drawn) [Example 217, 2-[4-(2,4-dimethylphenyl)-2-methyl-1-oxo-1,2-dihydro-3-isoquinolinyl]-4-methylpentanoic acid] | 4.88 |
| CCOC(C(=O)O)c1c(-c2ccc(C)cc2C)c2ccccc2c(=O)n1C (stereo not drawn) [Example 218, [4-(2,4-dimethylphenyl)-2-methyl-1-oxo-1,2-dihydro-3-isoquinolinyl](ethyloxy)acetic acid] | 4.48 |
| Cc1ccc(-c2c(C(OC(C)(C)C)C(=O)O)n(C)c(=O)c3cc(-c4cn(CCO)nn4)ccc23)c(C)c1 (stereo not drawn) [Example 219, [(1,1-dimethylethyl)oxy]{4-(2,4-dimethylphenyl)-7-[1-(2-hydroxyethyl)-1H-1,2,3-triazol-4-yl]-2-methyl-1-oxo-1,2-dihydro-3-isoquinolinyl}acetic acid] | 4.95 |
